Target: T1, Aurora A (Homo sapiens, UniProt O14965)
T1 construct: C-terminally Histidine4 (His4)-tagged Aurora A full-length protein; His4 (C)
T1 sequence (O14965 1-403): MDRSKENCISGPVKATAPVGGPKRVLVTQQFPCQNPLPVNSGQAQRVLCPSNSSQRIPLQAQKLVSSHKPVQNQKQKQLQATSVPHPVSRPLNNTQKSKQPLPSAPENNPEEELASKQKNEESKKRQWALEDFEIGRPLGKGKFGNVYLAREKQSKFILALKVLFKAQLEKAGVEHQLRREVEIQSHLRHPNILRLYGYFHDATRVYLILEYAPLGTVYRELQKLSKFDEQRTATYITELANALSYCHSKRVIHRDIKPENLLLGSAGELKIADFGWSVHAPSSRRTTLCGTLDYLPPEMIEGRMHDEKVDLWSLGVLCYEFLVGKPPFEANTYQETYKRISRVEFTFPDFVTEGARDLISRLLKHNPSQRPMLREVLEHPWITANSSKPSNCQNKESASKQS
Assay: IC50 determination for inhibitors of Aurora A (96 MTP-ELISA)
Assay type: biochemical
Conditions: His4-tagged full-length Aurora A 250 ng/ml, PKB-GSK2 200 nM, ATP 4 μM, 90 min room temperature, read-out: IC50 Aurora A kinase inhibition
Experimental: Aurora A is a serine threonine kinase involved in spindle assembly and chromosome segregation. The assay is a typically ELISA-type assay where biotinylated substrate (PKB-GSK2) is phosphorylated. Phosphorylation is detected by peroxidase (POD) labelled polyclonal antibody (PAK<M-Ig>S-IgG-POD) and phosphopeptide monoclonal antibody (Mab) (MAK<P-GSK>M-27E5-IgG). The assay is validated for IC50-determination.
Assay plates: 96-well polystyrene plates, streptavidin-coated,
Samples: 10 mM in dimethylsulfoxide (DMSO)
Aurora A-His-4: C-terminally Histidine4 (His4)-tagged Aurora A full-length protein, stock solution 0.7 mg/ml, final conc.: 250 ng/ml
PKB-GSK2: biotinylated peptide derived from human GSK3-alpha sequence (Biotin-SGRARTSSFAEPGG-CONH2), stock solution 600 μM, final conc.: 200 nM
PAK<M-Ig>S-IgG-POD: Anti-mouse IgG, horse radish peroxidase(HRP)-linked Antibody, diluted in 3% BSA/PBS-T (1:10000), (Cell Signaling, Cat. No.: 7076)
MAK<P-GSK>M-27E5-IgG: Phospho-GSK-3-alpha (Ser 21) (27E5) Monoclonal Antibody, stock solution 1.85 mg/ml, diluted in 3% BSA/PBS-T (1:6000), final conc.: 0.31 μg/ml, (Cell Signaling, Cat. No.: 9337B)
ATP: Adenosine-5′-triphosphate 1 mM, diluted in kinase buffer, (Roche Diagnostics GmbH, Cat. No.: 127531-001,), final conc.: 4 μM
TRIS: 2-Amino-2-hydroxymethyl-1,3-propoanediol (“tris-(hydroxymethyl)-aminomethane”) (MERCK, Cat. No.: 108382.2500)
BSA: Bovine Serum Albumin Fraction V, fatty acid free (Roche Diagnostics GmbH, Cat. No. 9100221)
EDTA Titriplex III (di-Sodium-EDTA di-Hydrate), 120 mM, (MERCK, Cat. No.: 1.08418.1000)
ABTS buffer: ABTS (2,2′-azino-bis(3-ethylbenzthiazoline-6-sulfonic acid)) 16.7 mg/ml (Roche Diagnostics GmbH, Cat. No.: 1204530) • ABTS tablets: dissolve one ABTS tablet in 50 ml of working solution (ABTS buffer) (Roche Diagnostics GmbH, Cat. No.: 1112422 ) • Tween 20: Polysorbat 20 (Roche Diagnostics GmbH, Cat. No.: 10006394-001) • DTT: 1,4-Dithiothreitol (Roche Diagnostics GmbH, Cat. No.: 197777) • MgCl2×6H2O MERCK, Cat. No.: 105833.1000 • Kinase buffer: 50 mM TRIS, 10 mM MgCl2, 1 mM DTT, 0.1% Tween 20, pH 7.8 PBS-T (=Wash buffer) (PBS-T)10 g/l PBS(Phosphate buffered saline) with 0.033% Tween 20 • 3% BSA/PBS-T: 3% BSA dissolved in PBS-T Method
This assay is performed in 96-well format for IC50 determination with 5 samples (each with 8 concentrations by twofold testing), 100 μl incubation volume and the following plate layout:
S samples, with ATP, 1% DMSO, final conc.: a=100 μM, b=20 μM, c=4 μM, d=0.8 μM, e=0.16 μM, f=0.032 μM, g=0.0064 μM, h=0.00128 μM Step/Action • (1) Sample preparation: add 24 μl per well samples (descending sequence) diluted in kinase buffer to assay plate (final conc. for DMSO 1%). • 2. Add directly 16 μl Aurora-A-his-4 diluted in kinase buffer to assay plate. • 3. Add directly 40 μl per well PKB-GSK2/ATP mixture to assay plate, (final conc.: Aurora A=250 ng/ml, GSK2=200 nM, ATP=4 μM). Negative control: without ATP. • 4. Incubate assay plate for exactly 90 min at room temperature. • 5. Stop reaction by adding 20 μl EDTA in all wells. • 6. Wash assay plate 3× with 200 μl washing buffer per well. • 7. Add 100 μl MAK<P-GSK>M27E5-IgG (1:10000) and PAK<M-Ig>S-IgG-POD (1:6000) dissolved in 3% BSA/PBS-T to assay plate per well. • 8. Incubate assay plate for 60 min at room temperature. • 9. Wash assay plate 3× with 200 μl washing buffer per well • 10. Add 100 μl ABTS solution to assay plate per well, incubate for approx. 4 min at RT on MTP shaker. • 11. Measure absorption at 405/492 nm. • 12. Calculate % inhibition as: (1−(Esample−ENC)/(EPC−ENC))×100 1)
13. Calculate IC50 using a non-linear curve fit (XLfit software (ID Business Solution Ltd., Guilford, Surrey, UK))

Row | IC50 | SMILES
1 | 1 to 100 nM | CC1(C)C(=O)N(CC(=O)N2CCCCC2)c2cc3[nH]c(-c4n[nH]c5ccccc45)nc3cc21 [Example 44, 2-(1H-Indazol-3-yl)-7,7-dimethyl-5-(2-oxo-2-piperidin-1-yl-ethyl)-5,7-dihydro-3H-imidazo[4,5-f]indol-6-one]
2 | 1 to 100 nM | CC1(C)C(=O)N(CC(=O)NCC(O)CO)c2cc3[nH]c(-c4n[nH]c5ccccc45)nc3cc21 (stereo not drawn) [Example 48, N-(2,3-Dihydroxy-propyl)-2-[2-(1H-indazol-3-yl)-7,7-dimethyl-6-oxo-6,7-dihydro-3H-imidazo[4,5-f]indol-5-yl]-acetamide]
3 | 1 to 100 nM | CC1(C)C(=O)N(CCNC(=O)c2ccccc2)c2cc3[nH]c(-c4n[nH]c5ccccc45)nc3cc21 [Example 53, N-{2-[2-(1H-Indazol-3-yl)-7,7-dimethyl-6-oxo-6,7-dihydro-3H-imidazo[4,5-f]indol-5-yl]-ethyl}-benzamide]

— US20060142247A1, “Tricyclic heterocycles” (priority 2004, published 2006)
